# Experimental data taken from US20250288572A1, “COMPOSITIONS AND METHODS FOR TREATING PULMONARY VASCULAR DISEASE” (UNIVERSITY OF PITTSBURGH-OF THE COMMONWEALTH SYSTEM OF …, priority 2022, published 2025).
# “Also recorded” adds a separate entry of the source. Where a SMILES comes first, the peptide text is derived from it. The star is where a group is joined. Cbz = O=C(OCc1ccccc1)*
# B1: rhGal8: recombinant human LGALS8 (galectin-8), R&D Systems 1305-GA-050 (protein, UniProt O00214 1-317, looked up)
# Galectin-8: MMLSLNNLQNIIYNPVIPFVGTIPDQLDPGTLIVIRGHVPSDADRFQVDLQNGSSMKPRADVAFHFNPRFKRAGCIVCNTLINEKWGREEITYDTPFKREKSFEIVIMVLKDKFQVAVNGKHTLLYGHRIGPEKIDTLGIYGKVNIHSIGFSFSSDLQSTQASSLELTEISRENVPKSGTPQLRLPFAARLNTPMGPGRTVVVKGEVNANAKSFNVDLLAGKSKDIALHLNPRLNIKAFVRNSFLQESWGEEERNITSFPFSPGMYFEMIIYCDVREFKVAVNGVHSLEYKHRFKELSSIDTLEINGDIHLLEVRSW
# Key:
# [1] = tested on: rats with PAH due to monocrotaline exposure; test: Monocrotaline PAH rats, glutaminase inhibitors daily i.p. Days 7-21 (Example 2); type: in vivo; conditions: MCT rats; for Fulton index / right ventricular systolic pressure (RVSP): 10 mg/kg daily i.p. Days 7-21, vs vehicle control
# Method: In rats with PAH due to monocrotaline exposure, daily i.p, delivery of CB-839 (10 mg/kg) vs. UPGL00064 (10 mg/kg) vs. vehicle control was performed from Days 7-21 post-monocrotaline exposure. […] Error bars represent ±SEM. […] In rats with PAH due to monocrotaline exposure, daily i.p. delivery of CB-839 (10 mg/kg) vs. UPGL000064 (10 mg/kg) vs. vehicle control was performed from Days 7-21 post-monocrotaline exposure. […] Error bars represent ±SEM.
# PAECs [2] = test: Flow cytometry detection of mitochondrial superoxide (MitoSOX Red) in PAECs
# Method: To assess the effect of I-BET under inflammatory conditions, cells were treated with recombinant human IL-1β (10 ng/ml, Peprotech) at about 70-80% confluency for 48 h in complete media along with vehicle control (DMSO, Sigma-41639), I-BET151 (500 nM), 1-BET762 (500 nM) (Selleckchem-S2780/S7189), as indicated.
# For hypoxia exposure, cells were plated in 6-well cell culture plates at 1×10^5 cells/well, grown for 24 hr and placed into a normobaric hypoxia chamber (1%02) for 24 h under specific treatment conditions. Namely, for I-BET and siLGALS8 exposures, cells were either pre-treated with I-BET/vehicle control (VC) or transfected with siLgals8/Scr for 24 h. Then, they were cultured in basal media at 1% 02. After 24 h, caspase activity and mitochondrial superoxide levels were quantified. To detect activation status of pSTAT1/STAT1 by immunoblot, cells were exposed to 8 h of hypoxia.
# Flow cytometry detection of mitochondria superoxide: For measuring mitochondrial superoxide, cells were incubated with 5 μM of MitoSOX Red mitochondrial superoxide indicator (Thermo Fisher Scientific) for 10 min in 37° C.
# PAECs [3] = test: Cellular apoptosis, caspase-3/7 activity (Caspase-Glo 3/7) in PAECs; type: cell-based, human; conditions: PAECs
# Method: (§1) The hypoxia chamber (modular incubator chamber) was obtained from Billups-Rothenberg Inc. (Del Mar, Cali) and placed in regulated CO2 incubator at 37° C.
# Cellular apoptosis: Caspase-3/7 activity was quantified using the Caspase-Glo 3/7 Assay (Promega), according to manufacturer's instructions. Caspase-3/7 activity was normalized to total protein content determined by BCA method (Thermo Fisher Scientific).
# [4] = tested on: hypoxia-induced pulmonary hypertension mice; test: Hypoxia-induced (Group 3) pulmonary hypertension mouse model
# Source text: Animal models: For the hypoxia-induced pulmonary hypertension mice, male C57BL/6J mice (8 weeks old) (RRID:IMSR_JAX:000664) were purchased from Jackson laboratory and acclimatized for 3-4 days in this facility. Subsequently, mice scheduled for normoxic vs. hypoxic exposure were maintained in either normoxia or a normobaric hypoxia chamber for 1 or 3 weeks (OxyCycler, Biospherix Ltd.), where consistent exposure to 10% oxygen and control for temperature and humidity were possible.
# I-BET was dissolved in DMSO at 100× concentration and then made into a working solution in 20% PEG400 and 80% 1×PBS.
# Male and female 8 week old Lgals8−/− mice were exposed to hypoxia for 3 weeks. Littermates were used as wildtype (WT) control when comparing with knockout mice.
# Immunofluorescent staining: Cryostat sections were cut from OCT-embedded lung tissues at 5-10 μm and mounted on gelatin-coated histological slides. Slides were thawed at room temperature for 10-20 min and rehydrated in wash buffer for 10 minutes. All sections were blocked in 10% donkey scrum and exposed to primary antibody and Alexa 488, 568 and 647-conjugated secondary antibodies (Thermo Fisher Scientific). The following primary antibodies were used: Lgals8 (Ab69631, Abcam; 1/2200), IL-1 (ab9722, Abcam; 1%200), GSTP1 (ab153949, Abcam; 1:100), ISCU (14812-1-AP, Proteintech; 1:100), cleaved caspase 3 (cs-9661, Cell Signaling; 1/400), α-SMA (F3777, Sigma; I/200) and CD31 (ab7388, Abcam: 1/200). Images were obtained using Nikon A1 confocal microscope with 40× objective. Small pulmonary vessels (10 vessels/section) that were not associated with bronchial airways were selected for analysis. Intensity of staining was quantified using ImageJ software (NIH). Degree of pulmonary arteriolar muscularization was assessed in OCT lung sections stained for α-SMA by calculation of the proportion of fully and partially muscularized peripheral (<100 μm diameter) pulmonary arteriole to total peripheral pulmonary arterioles (Bertero T et al. J Clin Invest. 2014, 124, 3514-3528).
# [5] = tested on: SU5416-hypoxic pulmonary arterial hypertension rats; test: SU5416-hypoxia pulmonary arterial hypertension rat model, disease-reversal dosing; type: in vivo, Sprague-Dawley rats; conditions: SU5416-hypoxia rats
# Method: Briefly, 10 week old male Sprague-Dawley rats were injected i.p. with 20 mg/kg of SU5416 (Sigma), placed in normobaric hypoxia (10% 02) for 3 weeks and then transferred to normoxia for 2 weeks. During hypoxic exposure, chambers were opened twice a week for cleaning and replenishment of food and water. […] For BRD2889 vs. vehicle control dosing, i.p. injections every 5 days (5 mg/kg) were administered during the final two weeks of normoxia. Oxygen concentrations were continuously monitored with blood gas analyzers.
# Measurement of GST activity: The GST activity from lung tissue and PAECs was assayed using GST assay kit (Cayman, MI, USA) per the manufacturer's instructions.
# Rodent echocardiography: Echocardiography was performed using a 15-45M Hz transthoracic transducer and a Visual Sonics Vevo 3100 system (Fujifilm). Inhaled isoflurane anesthesia was used at 2% in 100% 02 during positioning and hair removal and then decreased to isoflurane 0.8% during imaging.
# LGALS8 = test: Immunoblot and densitometry of LGALS8 isoforms in PAECs; type: cell-based, human; conditions: IL-1β, listed as I-BET
# Method: (§2) Immunoblot and densitometry: Cells were lysed in RIPA buffer (Sigma) along with 1× protease inhibitor cocktail (Sigma). Protein lysate was resolved by gradient 4%-15% SDS-PAGE gels and transferred onto a 0.2 μm PVDF membrane (Bio-Rad). Membranes were blocked in 5% non-fat milk in 1×PBST buffer for one hour at room temperature. Later, they were incubated in the presence of the primary antibody overnight at 4° C., and then appropriate HRP-conjugated secondary antibodies (Life Technologies). The following antibodies were used: human LGALS8 (AF1305, RnD Systems), mouse/rat Lgals8 ([…], Abcam), pSTAT1 (ab29045, Abcam) and STAT1 (ab47425, Abcam), GSTP1 (ab153949, Abcam), ISCU (14812-1-AP, Pointech), Glutathione (ab19534, Abcam), HIF2A (NB100-122, Novous), α-Tubulin (CP06, Millipore sigma), and ACTB (sc-47778, Santa Cruz). The immunoreactive bands were visualized with the Chemidoc XRS+ system (Bio-Rad) using SuperSignal West Femto chemiluminescent substrates (Thermo Fisher Scientific). The images were later quantified using AlphaEaseFC software (Alpha Innotech).
# PAECs [6] = test: RT-qPCR gene expression in PAECs; type: cell-based, human; conditions: for expression of Cluster 15 members (SLC9A3R1, LGALS3): IL-1β-induced expression changes
# Method: as §1
# RT-qPCR analysis: Cells were lysis in 1 ml of QiaZol reagent (Qiagen). Total RNA content was extracted using the RNeasy kit (Qiagen), according to the manufacturer's instructions. Total RNA concentration was determined using a BioTek Synergy multimode plate reader. Messenger RNAs were reverse transcribed to generate cDNA using the Multiscript RT kit (Thermo Fisher Scientific). cDNA for specific gene targets was amplified and quantified via fluorescently-labeled Taqman primer sets and Taqman fast advanced master mix (Thermo Fisher Scientific) using an Applied Biosystems QuantStudio 6 Flex Real-Time PCR System.
# ISCU = test: Protein stability assay (proteasome inhibitor MG132) in hypoxic PAECs; type: cell-based, human; parameters: dose or concentration left out as unconfirmed; conditions: MG132 (2 h)
# Method: Protein stability assay: The proteasome inhibitor MG132 (M7449, Sigma) was stored at −20° C. at a concentration of 10 mM diluted in dimethyl sulfoxide (DMSO). PAECs were exposed to MG132 ([…]) vs. DMSO vehicle control for 2 hr under hypoxia, prior to harvesting of cellular lysate for immunoblotting.
# as §2
# [7] = IL-1β 10 ng/ml 48 h, 500 nM vs vehicle control
# [8] = IL-1β 10 ng/ml 48 h, 500 nM vs vehicle control, listed as I-BET
# [9] = hypoxic mice, I-BET762 30 mg/kg daily oral
# [10] = I-BET762 30 mg/kg daily i.p. or BRD2889 5 mg/kg i.p. every 5 days, final 2 weeks
# [11] = IL-1β 48 h, I-BET plus rhGal8 24 h (30 nM)
molecule,measurement,setting,value
"O=C(Cc1cccc(OC(F)(F)F)c1)Nc1ccc(CCCCc2nnc(NC(=O)Cc3ccccn3)s2)nn1 [CB-839, reference compound]",Fulton index,[1],significantly decreased
same,right ventricular systolic pressure (RVSP),[1],significantly decreased
CCNC(=O)C[C@@H]1N=C(c2ccc(Cl)cc2)c2cc(OC)ccc2-n2c(C)nnc21 [I-BET762],"mitochondrial superoxide (O2−) levels, MitoSOX Red",PAECs [2]; [7],reversed the IL-1β-induced increases; also recorded: reversed by I-BET762
same,"mitochondrial superoxide (O2−) levels, MitoSOX Red",PAECs [2]; [8],reduced the IL-1β-dependent increase
same,"mitochondrial superoxide (O2−) levels, MitoSOX Red","PAECs [2]; hypoxia 24 h, vs vehicle control",reversed the hypoxia-induced increases
same,"apoptosis, caspase-3/7 activity",PAECs [3]; [7],reversed the IL-1β-induced increases
same,"apoptosis, caspase-3/7 activity",PAECs [3]; [8],reduced the IL-1β-dependent increase
same,"apoptosis, caspase-3/7 activity","PAECs [3]; hypoxia 24 h, I-BET vs vehicle control",reversed the hypoxia-induced increases
same,cleaved caspase-3 (apoptosis),[4]; [9],reduced downstream apoptosis; also recorded: reversed the 3 week hypoxia-dependent increases
same,heart rate,[4]; [9],without significant effect
same,pulmonary vascular LGALS8 expression,[4]; [9],robustly decreased; also recorded: reversed the 3 week hypoxia-dependent increases
same,pulmonary vascular muscularization (α-SMA),[4]; [9],reduced; also recorded: reversed the 3 week hypoxia-dependent increases
same,right ventricular systolic pressure (RVSP),[4]; [9],reduced; also recorded: reversed the 3 week hypoxia-dependent increases
same,LGALS8,"[4]; normoxic mice, similar dosing, mean±SEM, vehicle control 1±0.02, p=NS",1.08±0.03 fold change
same,LGALS8 in pulmonary arterioles (immunofluorescence),[5]; I-BET762 30 mg/kg daily i.p. Days 21-35,decreased
same,arteriolar muscularization (α-SMA),[5]; [10],reduced
same,"cleaved caspase-3 (CC-3), endothelial apoptosis",[5]; [10],reduced downstream apoptosis; also recorded: decreased
same,right ventricular systolic pressure (RVSP),[5]; [10],reduced
same,LGALS8-L protein (immunoblot densitometry),LGALS8,followed its mRNA expression; also recorded: reversed the IL-1β-induced increase
same,LGALS8-M protein (immunoblot densitometry),LGALS8,no significant difference
same,LGALS8-L transcript,PAECs [6]; IL-1β,reversed the alterations
same,"expression of C15 genes LGALS3, LGALS8, DAG1, SLC9A3R1 (extent of reversal)",PAECs [6]; IL-1β,near complete reversal
same,"expression of CD47, ABCC4 and DAG1",PAECs [6]; IL-1β,all rescued
same,expression of Cluster 15 (C15) gene galectin-8 (LGALS8),PAECs [6]; IL-1β,reversed the IL-1β-induced increases
same,LGALS8-L transcript,"PAECs [6]; IL-1β, listed as I-BET",reversed by I-BET
same,LGALS8-M transcript,"PAECs [6]; IL-1β, listed as I-BET",not altered by I-BET
same,"expression of Cluster 15 members (SLC9A3R1, LGALS3)",PAECs [6],reversed
CC(C)C[C@@H](C=O)NC(=O)[C@H](CC(C)C)NC(=O)[C@H](CC(C)C)NC(=O)OCc1ccccc1 [MG132] (Cbz-Leu-Leu-Leu-aldehyde),GSTP1 and ISCU glutathionylation,ISCU,without affecting GSTP1 or glutathionylation
same,ISCU protein,ISCU,reversed the hypoxic down-regulation of ISCU; also recorded: reversed the hypoxia-induced reduction of ISCU
COc1cc2c(cc1-c1c(C)noc1C)ncc1[nH]c(=O)n([C@H](C)c3ccccn3)c12 [I-BET151],"expression of Cluster 15 members (SLC9A3R1, LGALS3)",PAECs [6],reversed
O=C(Cc1ccccc1)Nc1nnc(NC2CCN(c3nnc(NC(=O)CC4CC4)s3)CC2)s1 [UPGL00064],"Fulton index, compared with CB-839",[1]; 10 mg/kg daily i.p. Days 7-21,more robust trend toward lower Fulton index
same,"RVSP, compared with CB-839",[1]; 10 mg/kg daily i.p. Days 7-21,more robust trend toward lower RVSP
same,Fulton index,[1],significantly decreased
same,right ventricular systolic pressure (RVSP),[1],significantly decreased
B1,mitochondrial O2−: effect of rhGal8 on the I-BET-induced attenuation,PAECs [2]; [11],reduced the ability of I-BET to decrease; also recorded: reversed the I-BET-induced attenuation; also recorded: attenuated
same,mitochondrial superoxide,PAECs [2]; rhGal8 alone,alone had no effect
same,caspase 3/7 activity (apoptosis): effect of rhGal8 on the I-BET-induced attenuation,PAECs [3]; [11],reduced the ability of I-BET to decrease; also recorded: reversed the I-BET-induced attenuation
same,apoptosis,PAECs [3]; rhGal8 alone,alone had no effect
